Columns and labels:
[1] = test system: T1, PI3K p110α; test: PI3K activity assay (PIP3 production, Millipore kit) in combination with wortmannin, p110α; format: biochemical; details: recombinant purified enzyme; 100 nM wortmannin + 5 µM compound
T1 construct: purchased Millipore (Billerica, MA)
Procedure: The production of phosphatidylinositol (3,4,5)-triphosphate (PIP3) by the four class I PI3K isoenzymes (p110 α, β, γ, δ) was assessed using the PI3 Kinase Activity/Inhibitor Assay Kit (Millipore, Billerica, MA) according to the manufacturer's instructions. This assay works on the principle that the PH domain of the protein GRP-1 binds PIP3 with high affinity and specificity. This protein binds to the glutathione plate and captures either the PIP3 generated as part of the kinase reaction or the biotinylated-PIP3 tracer included in the kit. The captured biotinylated-PIP3 is detected using streptavidin-HRP conjugate and a colorimetric read out (OD 450).
The class I PI3Ks are heterodimeric enzymes formed by association of a p110 catalytic subunit with a p85 regulatory subunit. There are 4 variants of the p110 catalytic subunit designated p110α, β, δ or γ [22]. […] Briefly, in this assay the PIP3 generated as part of the kinase reaction or the biotinylated-PIP3 tracer included in the kit is captured on a glutathione plate via its interaction with the pleckstrin homology (PH) domain of the glutathione S-transferase (GST)-fusion protein general receptor for phosphoinositides-1 (GRP-1). The captured biotinylated-PIP3 is then detected using a streptavidin-HRP conjugate and a colorimetric read out.

[2] = test system: latent HIV-1 in ACH2 and U1 cell lines; test: Latent HIV-1 reactivation, range across cell lines of virus latency; format: cell-based; details: Human immunodeficiency virus 1, ACH-2, read-out: EC50, reactivation of latent HIV-1 gene expression
[3] = biological target: T2, HDAC8 (Homo sapiens, UniProt Q9BY41); test: Fluorogenic HDAC activity assay, HDAC8; format: biochemical
T2 construct: purchased BPS Bioscience (San Diego, CA)
T2 sequence (Q9BY41 1-377): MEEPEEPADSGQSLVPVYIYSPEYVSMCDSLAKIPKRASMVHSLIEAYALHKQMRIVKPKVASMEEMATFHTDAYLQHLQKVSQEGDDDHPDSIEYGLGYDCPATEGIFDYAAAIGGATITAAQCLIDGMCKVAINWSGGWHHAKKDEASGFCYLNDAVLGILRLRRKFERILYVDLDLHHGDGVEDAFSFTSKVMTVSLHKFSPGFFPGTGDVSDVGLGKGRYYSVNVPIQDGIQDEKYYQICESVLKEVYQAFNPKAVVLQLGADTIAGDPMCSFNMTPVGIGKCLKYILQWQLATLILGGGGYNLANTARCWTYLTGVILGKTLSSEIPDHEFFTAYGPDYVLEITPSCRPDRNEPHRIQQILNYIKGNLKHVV
Procedure: The lysine deacetylase activity of HDACs 1, 2, 3, and 8 was assessed using the Fluorogenic HDAC Assay (BPS Bioscience, San Diego, CA) according to the manufacturer's instructions. […] All assays were carried out under steady-state conditions and the assay read-out was optimized for linearity both as a function of time and enzyme concentration. The formation of the fluorescent product was measured using a SpectraMax M2 Plate Reader (Molecular Devices, CA). The excitation and emission wavelengths were 360 nm and 450 nm, respectively.

[4] = test system: PI3K p110δ RNA; test: PI3K isoform RNA transcript levels in J89GFP cells, p110δ; format: cell-based; details: 5 µM

`COc1cc2c(cc1OC)-c1c(OC)c(OC)cc3ccnc(c13)C2=O` [Compound 57704, 1,2,9,10-tetramethoxy-7H-dibenzo[de,g]quinolin-7-one] was tested. Which “Agonist activity: effect on inhibition of PI3K p110α by wortmannin” value [1] did it give?
Its value is “abrogated the ability of wortmannin to inhibit PI3K p110α”.

What about the EC50 [2] of the same molecule?
The EC50 was 5 to 9 µM.

What about the IC50 [3] of the same molecule?
The IC50 was over 50 µM.

What about the “Effect on PI3K p110δ RNA transcript levels / gene expression” value [4] of the same molecule?
Its value is “no effect”.

Source: PMC3906007, “Discovery of a Small Molecule Agonist of Phosphatidylinositol 3-Kinase p110α That Reactivates Latent HIV-1” (PLoS ONE, 2014)
